Common to all, as to assay type: functional
For assay [1], the system named is Fusarium graminearum. Briefly: Antifungal activity against Fusarium graminearum B4-5A strain A after 48 hrs by microdilution assay. For orientation: In broth dilution the organism is exposed to a series of concentrations in liquid medium.
Assay [2] relates to Fusarium graminearum. Briefly: Synergistic antifungal activity against Fusarium graminearum infected in wheat plant assessed as fusarium head blight incidence at 360 mg/L in presence of 0.512 L/ha caramba (reference value: 70%).
The next assay relates to Candida albicans. Nature of the assay: Antifungal activity against Candida albicans ATCC 10231.
Assay [3] concerns Fusarium graminearum. Nature of the assay: Synergistic antifungal activity against Fusarium graminearum infected in wheat plant assessed as fusarium head blight severity at 180 mg/L in presence of 0.438 L/ha prosaro 421 SC (reference value: 75%).
Assay [4] relates to Fusarium graminearum. Briefly: Synergistic antifungal activity against Fusarium graminearum B4-5A strain A in presence of fluconazole after 48 hrs by checkerboard method.
Assay [5] deals with Fusarium graminearum. Briefly: Synergistic antifungal activity against Fusarium graminearum infected in wheat plant assessed as spikelet curling at 360 mg/L in presence of 8 ml/L pyraclostrobin (reference value: 51.4%).
The subject of assay [6] is Fusarium graminearum. Briefly: Synergistic antifungal activity against Fusarium graminearum B4-5A strain C in presence of fluconazole after 48 hrs by checkerboard method.
Assay [7] relates to Fusarium graminearum. Nature of the assay: Synergistic antifungal activity against Fusarium graminearum B4-5A strain E in presence of fluconazole after 48 hrs by microdilution assay.
In assay [8] the test system is Fusarium graminearum. Nature of the assay: Synergistic antifungal activity against Fusarium graminearum B4-5A strain D in presence of fluconazole after 48 hrs by checkerboard method.
The test system of the next assay is Staphylococcus aureus. Nature of the assay: Antibacterial activity against Staphylococcus aureus ATCC 25923.
For assay [9], the system named is Fusarium graminearum. Nature of the assay: Synergistic antifungal activity against Fusarium graminearum infected in wheat plant assessed as fusarium head blight severity at 360 mg/L in presence of 0.438 L/ha prosaro 421 SC (reference value: 75%).
Another assay relates to Micrococcus luteus. Nature of the assay: Antibacterial activity against Micrococcus luteus ATCC 10240.
For another assay, the system named is Candida tropicalis. Nature of the assay: Antifungal activity against Candida tropicalis 95-41.
Assay [10] relates to Fusarium graminearum. Briefly: Synergistic antifungal activity against Fusarium graminearum infected in wheat plant assessed as fusarium head blight severity at 180 mg/L in presence of 0.512 L/ha caramba (reference value: 75%).

Here are results for one compound from ChEMBL document CHEMBL4257529, “Antifungal amphiphilic kanamycins: new life for an old drug” (Medchemcomm, 2018).

≈ marks a conversion by molar mass, not a printed value.

As for `CCCCCCCCS(=O)(=O)OC[C@H]1O[C@H](O[C@@H]2[C@@H](O)[C@H](O[C@H]3O[C@H](CN)[C@@H](O)[C@H](O)[C@H]3O)[C@@H](N)C[C@H]2N)[C@H](O)[C@@H](N)[C@@H]1O`, the MIC (commonly the lowest concentration found to suppress growth) was 16 µg/mL (≈ 24.2 µM) against Fusarium graminearum [1]; 15.6 µg/mL (≈ 23.6 µM) against Candida albicans; 4 µg/mL in the assay with Fusarium graminearum [7]; 250 µg/mL (≈ 378 µM) against Staphylococcus aureus; 62.5 µg/mL (≈ 94.6 µM) with Micrococcus luteus; 15.6 µg/mL (≈ 23.6 µM) against Candida tropicalis. The Activity is 13% in the assay on Fusarium graminearum [2]; 55% with Fusarium graminearum [3]; 1.5% in the assay with Fusarium graminearum [5]; 54% in the assay on Fusarium graminearum [9]; 50% in the assay on Fusarium graminearum [10]. The figures for the “fractional inhibitory concentration index (FICI)” value with Fusarium graminearum [4], with Fusarium graminearum [6] and in the assay on Fusarium graminearum [8] were 0.37, 0.37 and 0.5, respectively.
